Molecular target: T1, Cloned Human Dopamine D3 Receptors (Homo sapiens, UniProt P35462)
T1 construct: expressed in transfected cells; membrane homogenate
Assay: [N-Methyl-3H]Spiroperidol binding to cloned human dopamine D3 receptors
Details: D3 Ki (nM)
How it was run: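 [N-methyl-3H]spiroperidol binding is run in Tris buffer, pH 7.7. Receptor source is membranes of a stably transfected, high-expressing CHO clone carrying the human D3 gene, kept at -80°C in 10% DMSO.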

T1 sequence (P35462 whole entry): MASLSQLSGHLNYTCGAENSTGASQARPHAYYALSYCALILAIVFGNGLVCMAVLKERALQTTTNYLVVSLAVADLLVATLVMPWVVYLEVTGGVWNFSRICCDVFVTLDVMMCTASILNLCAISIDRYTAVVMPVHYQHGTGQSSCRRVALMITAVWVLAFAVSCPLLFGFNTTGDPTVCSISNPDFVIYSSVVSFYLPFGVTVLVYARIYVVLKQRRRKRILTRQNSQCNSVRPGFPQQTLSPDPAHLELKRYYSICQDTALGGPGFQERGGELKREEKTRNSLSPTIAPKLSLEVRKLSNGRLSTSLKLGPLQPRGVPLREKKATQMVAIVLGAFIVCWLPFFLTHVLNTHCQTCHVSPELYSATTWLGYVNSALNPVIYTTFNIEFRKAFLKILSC

Compound | Ki
O=C(NCCCn1ccnc1)[C@@H]1C[C@H]1CN1CCC(c2nn(-c3ccc(C(F)(F)F)cc3)c3ccccc23)CC1 [compound 831311] | 38.7 nM
Cn1nc(N2CCN(CC3CC3C(=O)NCCCn3ccnc3)CC2)c2sccc21 (centres unmarked) [compound 831673] | 23.5 nM
O=C(NC1CCN(CC2CCCCC2)CC1)C1CC1CN1CCC(c2noc3ccsc23)CC1 (centres unmarked) [compound 831823] | 2.37 nM
COc1ccccc1CN1CCC(NC(=O)C2CC2CN2CCC(c3noc4ccsc34)CC2)CC1 (centres unmarked) [compound 831991] | 0.722 nM
CN1CCCC1CCNC(=O)C1CC1CN1CCN(c2csc3cc(C(F)(F)F)ccc23)CC1 (centres unmarked) [compound 832217] | 44.1 nM
O=C(NC1CCN(Cc2ccc(F)c(F)c2)CC1)C1CC1CN1CCC(c2noc3ccsc23)CC1 (centres unmarked) [compound 832342] | 0.077 nM
O=C(NC1CCN(Cc2cc(F)ccc2F)CC1)C1CC1CN1CCC(c2noc3ccsc23)CC1 (centres unmarked) [compound 832345] | 1.46 nM
O=C(NC1CCN(Cc2ccc(C(F)(F)F)cc2)CC1)C1CC1CN1CCC(c2noc3ccsc23)CC1 (centres unmarked) [compound 832349] | 0.843 nM
O=C(C1CC1CN1CCC(c2noc3ccsc23)CC1)N1CCC(Nc2ccc(Cl)cc2)CC1 (centres unmarked) [compound 832395] | 30.2 nM
O=C(NC1CCN(Cc2cccc(F)c2)CC1)[C@@H]1C[C@H]1CN1CCC(c2noc3ccsc23)CC1 [compound 832727] | 1.19 nM
Cn1nc(C2CCN(C[C@@H]3C[C@H]3C(=O)NCCCN3CCCCC3)CC2)c2cccc(C(F)(F)F)c21 [compound 833090] | 41.8 nM
O=C([C@@H]1C[C@H]1CN1CCC(c2noc3ccsc23)CC1)N1CCN(Cc2ccc(Cl)cc2)CC1 [compound 833128] | 28.7 nM
O=C(NC1CCN(C(=O)Nc2ccc(F)cc2)CC1)[C@@H]1C[C@H]1CN1CCC(c2noc3ccsc23)CC1 [compound 833715] | 5.7 nM
Cn1nc(C2CCN(C[C@@H]3C[C@H]3C(=O)N[C@H]3CC[C@H](C)CC3)CC2)c2cc(C(F)(F)F)ccc21 [compound 833769] | 1.63 nM

Same assay, conditions: read-out: D3 Ki

Compound | Ki
COc1ccc2c(CCNC(=O)[C@@H]3C[C@H]3CN3CCC(c4noc5ccsc45)CC3)c[nH]c2c1 [compound 831276] | 3.85 nM
O=C(NCCCc1ccccc1)[C@@H]1C[C@H]1CN1CCC(c2cc3ccccc3s2)CC1 [compound 831489] | 16.9 nM
O=C(NCCCn1ccnc1)[C@@H]1C[C@H]1CN1CCN(c2noc3ccsc23)CC1 [compound 831493, 2R-(4-Thieno[2,3-d]isoxazol-3-yl-piperazin-1-ylmethyl)-1 R-cyclopropanecarboxylic acid (3-imidazol-1-yl-propyl)-amide] | 4.95 nM
O=C(NCCCc1ccccc1)[C@@H]1C[C@H]1CN1CCN(c2noc3ccsc23)CC1 [compound 831494] | 28.3 nM
COc1cccc2c(C3CCN(C[C@@H]4C[C@H]4C(=O)N4CCC(Oc5ccc(F)cc5)CC4)CC3)noc12 [compound 831878] | 189 nM
COc1ccc2c(c1)c(N1CCN(C[C@@H]3C[C@H]3C(=O)N[C@H]3CC[C@H](O)CC3)CC1)nn2-c1ccc(C(F)(F)F)cc1 [compound 831949] | 29 nM
O=C(NC1CCC(O)CC1)C1CC1CN1CCN(c2noc3ccsc23)CC1 (centres unmarked) [compound 831955] | 47.3 nM
O=C(C1CC1CN1CCC(c2noc3ccsc23)CC1)N1CCN(CCc2ccccn2)CC1 (centres unmarked) [compound 832001] | 157 nM
Cc1nc(N)sc1CCNC(=O)C1CC1CN1CCC(c2noc3ccsc23)CC1 (centres unmarked) [compound 832045] | 22 nM
O=C(C1CC1CN1CCC(c2noc3ccsc23)CC1)N1CCN(CCC2CCCCC2)CC1 (centres unmarked) [compound 832058] | 24.2 nM
CC1CCC(NC(=O)C2CC2CN2CCC(c3noc4c(C(F)(F)F)cccc34)CC2)CC1 (centres unmarked) [compound 832203] | 4.76 nM
O=C(NCCCN1CCOCC1)[C@@H]1C[C@H]1CN1CCC(c2noc3c(C(F)(F)F)cccc23)CC1 [compound 832273] | 205 nM
O=C(NC1CCNCC1)[C@@H]1C[C@H]1CN1CCN(c2csc3cc(C(F)(F)F)ccc23)CC1 [compound 832502] | 2.67 nM
Cn1nc(C2CCN(C[C@@H]3C[C@H]3C(=O)NCCCn3ccnc3)CC2)c2cccc(C(F)(F)F)c21 [compound 832654, 2R-[4-(1-Methyl-7-trifluoromethyl-1 H-indazol-3-yl)-piperidin-1-ylmethyl]-1 R-cycloproanecarboxylic acid (3-imidazol-1-yl-propyl)-amide] | 4.72 nM
O=C(NC1CCN(CC2CC2)CC1)[C@@H]1C[C@H]1CN1CCN(c2csc3cc(C(F)(F)F)ccc23)CC1 [compound 832734] | 9.85 nM
O=C(NC1CCN(Cc2cccc(F)c2)CC1)[C@@H]1C[C@H]1CN1CCN(c2csc3cc(C(F)(F)F)ccc23)CC1 [compound 832736] | 2.74 nM
O=C(NC1CCN(Cc2ccc(F)cc2)CC1)[C@@H]1C[C@H]1CN1CCN(c2csc3cc(C(F)(F)F)ccc23)CC1 [compound 832738] | 3.26 nM

Compound | Ki
COc1ccc2c(c1)c(N1CCN(C[C@@H]3C[C@H]3C(=O)NCCCN3CCN(C)CC3)CC1)nn2C [compound 833121] | 26.5 nM
O=C(NC1CCN(Cc2ccc(F)c(F)c2)CC1)[C@@H]1C[C@H]1CN1CCC(c2noc3ccsc23)CC1 [compound 833165] | 1.07 nM
Cn1nc(C2CCN(C[C@@H]3C[C@H]3C(=O)N[C@H]3CC[C@H](C)CC3)CC2)c2cccc(C(F)(F)F)c21 [compound 833305] | 8.81 nM
CC(C)(C)OC(=O)N1CCC(CNC(=O)C2CC2CN2CCN(c3csc4cc(C(F)(F)F)ccc34)CC2)C1 (centres unmarked) [compound 833625] | 22.2 nM
COc1ccc2c(c1)c(N1CCN(C[C@@H]3C[C@H]3C(=O)N3CCC(CCN4CCCC4)CC3)CC1)nn2C [compound 833628] | 95.8 nM
COc1ccc2c(c1)c(N1CCN(C[C@@H]3C[C@H]3C(=O)NC[C@H]3CCN(C(=O)OC(C)(C)C)C3)CC1)nn2C [compound 833630] | 52.1 nM
COc1ccc2c(c1)c(N1CCN(C[C@@H]3C[C@H]3C(=O)NCCCN(C)C)CC1)nn2C [compound 833631] | 31.3 nM
C[C@H]1CC[C@H](NC(=O)[C@@H]2C[C@H]2CN2CCC(c3csc4c(C(F)(F)F)cccc34)CC2)CC1 [compound 833690, 2R-[4-(7-Trifluoromethyl-benzo[b]thiophen-3-yl)-piperidin-1-ylmethyl]-1R-cyclopropanecarboxylic acid (trans-4-methyl-cyclohexyl)-amide] | 7.97 nM
C[C@H]1CC[C@H](NC(=O)[C@@H]2C[C@H]2CN2CCC(c3nc4cc(Cl)ccc4o3)CC2)CC1 [compound 833692] | 72.9 nM
O=C(NCCCn1ccnc1)[C@@H]1C[C@H]1CN1CCN(c2csc3ncccc23)CC1 [compound 833821, 2R-(4-Thieno[2,3-b]pyridin-3-yl-piperazin-1-ylmethyl)-1R-cyclopropanecarboxylic acid (3-imidazol-1-yl-propyl)-amide] | 6.91 nM
Cn1nc(N2CCN(C[C@@H]3C[C@H]3C(=O)NCCCn3ccnc3)CC2)c2ccccc21 [compound 833822] | 0.64 nM
O=C(NCCCn1ccnc1)[C@@H]1C[C@H]1CN1CCN(c2nn(-c3ccc(F)cc3)c3ccccc23)CC1 [compound 833823] | 0.637 nM
C[C@H]1CC[C@H](NC(=O)[C@@H]2C[C@H]2CN2CCN(c3nn(-c4cccc(F)c4)c4ccsc34)CC2)CC1 [compound 833856] | 3.01 nM
C[C@H]1CC[C@H](NC(=O)[C@@H]2C[C@H]2CN2CCN(c3nn(-c4ccc(OC(F)(F)F)cc4)c4ccsc34)CC2)CC1 [compound 833876] | 50.3 nM
O=C(NCCCn1ccnc1)[C@@H]1C[C@H]1CN1CCC(c2csc3cc(C(F)(F)F)ccc23)CC1 [compound 834003] | 3.51 nM
C[C@H]1CC[C@H](NC(=O)[C@@H]2C[C@H]2CN2CCC(c3csc4cc(C(F)(F)F)ccc34)CC2)CC1 [compound 834016] | 1.63 nM
COc1cccc2c(C3CCN(C[C@@H]4C[C@H]4C(=O)N[C@H]4CC[C@H](C)CC4)CC3)nn(C)c12 [compound 834054] | 13.8 nM

Same assay, conditions: the 16th table; read-out: D3 Ki

Compound | Ki
O=C(NCCCn1ccnc1)C1(CCN2CCN(c3csc4cc(C(F)(F)F)ccc34)CC2)CC1 [compound 832231, 1-{2-[4-(6-Trifluoromethyl-benzo[b]thiophen-3-yl)-piperazin-1-yl]-ethyl}-cyclopropanecarboxylic acid (3-imidazol-1-yl-propyl)-amide] | 6.93 nM
COc1c(F)ccc2c(C3CCN(CCC4(C(=O)N[C@H]5CC[C@H](C)CC5)CC4)CC3)noc12 [compound 833330] | 72.7 nM

From EP1935887A1, “Heterocyclic substituted carbonyl derivatives and their use as dopamine D3 receptor ligands” (Aventis Pharmaceuticals Inc., priority 2001, dated 2002)
